Source: patent US20240025886A1, “INHIBITORS OF IGF2BP1-RNA BINDING” (YISSUM RESEARCH DEVELOPMENT COMPANY OF THE HEBREW …, priority 2020, published 2024)

Columns and labels:
Igf2bp1 RRM12 di-domain = molecular target: T1, Igf2bp1 RRM12 di-domain (Homo sapiens, UniProt Q9NZI8); assay: MST binding to Igf2bp1 di-domain RRM12
T1 construct: RRM12 (M1-P188); 6xHis (N, cleaved yes); made in house; host or cells: E. coli BL21(DE3)
Method: Recombinant full-length Igf2bp1 protein was labelled with RED-tris-NTA dye using a Monolith NT His-Tag Labelling Kit (NanoTemper) while RRM12, KH12 and KH34 di-domain peptides were labelled using the Protein Labeling Kit RED NHS 2nd generation (NanoTemper). Labelled proteins were spun at 15,000 g for 5 min to eliminate aggregates. All samples were 2× labelled protein mix of Igf2bp1 (200 nM) in PBST and were combined (1:1) with serial dilutions of compound or Kras6 RNA in binding buffer (10 mMTris pH=7.5, 100 mM NaCl, 0.1 mM EDTA, 0.06% IPEGAL, 0.02 μg/μL tRNA, 2 mM DTT, 0.1 μg/μL heparin) in final volume of 20 μL, room temperature for 15 min. Samples were then loaded into standard capillaries (NanoTemper) and read in the Monolith NT.115 scanner (NanoTemper) using the red filter with reading conditions of 95% LED power and 40% MST power, 5 sec fluorescence before, 30 sec MST on, 5 sec fluorescence after and 25 sec delay between samples. Results were analyzed using the MO Control software (NanoTemper) for curve fitting to KD.

H1299 cells = assay: Growth in soft agar, H1299 cells; assay type: cell-based, human; set-up: dose or concentration left out as unconfirmed; settings: H1299, 7773
Method: Cells were grown for 12 hours in 6 well plates prior to incubation with the compound or DMSO for an additional 48 hours, 2000 cells were suspended in 0.3% agar-complete medium and then seeded in triplicates onto a 0.6% agar-complete medium base in a 6 well plate. After one week, the colonies were fed with 0.3% agar-complete medium, and after 2 additional weeks, imaged and quantified.

ES2 cells = assay: Real-time PCR of steady state RNA levels in ES2 cells; assay type: cell-based, human; set-up: dose or concentration left out as unconfirmed
Method: Primers were calibrated for several Igf2bp1 RNA targets (Table 3): […]
Cells were grown for 12 hours in 12 well plates prior to incubation with the compound at different concentrations for an additional 12 or 24 hours. Total RNA was then extracted using EZ-RNA total RNA isolation kit (Biological Industries) and cDNA prepared from the RNA using the First Strand cDNA Synthesis kit (Quanta bio). Real time PCR was performed with Fast SYBR Green Master Mix (Thermo Fisher Scientific), and cDNA expression analyzed with the Bio-Rad CFX Manager 3.1.

[1] = tested on: control luciferase in RKO cells; assay: Control (wild type) luciferase in RKO cells; assay type: cell-based; settings: 50 mM 7773
Method: The RKO cells were seeded in DMEM with 10% calf serum 24 hrs prior to the transfection. Transfection was done using Lipofectamine 2000 with reporter plasmids and Renilla-luciferase expressing vector (as internal control). After 24 hrs, cells were lysed using passive lysis buffer (Promega catalog #E1941). The lysates were cleared by centrifugation and its […] volume was mixed with […] of luciferase substrate solution for luminescence recording which was followed by addition of […] of Stop-glo solution (Promega catalog #E1910) with an additional luminescence reading. Both readings were detected by using GloMax 20/20 Luminometer (Promega), and the final value for each sample was the ratio of their two respective readings. To test the effects of 7773, transfected cells with reporter plasmids were washed with PBS after 24 hrs of transfection and incubated with medium containing 7773.

T1 sequence (Q9NZI8 1-188): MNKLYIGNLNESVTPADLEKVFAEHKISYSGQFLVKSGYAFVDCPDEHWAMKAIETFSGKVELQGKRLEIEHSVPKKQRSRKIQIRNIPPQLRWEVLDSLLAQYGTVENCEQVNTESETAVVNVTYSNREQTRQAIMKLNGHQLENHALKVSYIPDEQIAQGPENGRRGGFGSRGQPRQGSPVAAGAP

Kd (Igf2bp1 RRM12 di-domain): 1500 nM
Structure (SMILES): O=C(c1ccc(Cn2cnnn2)cc1)N1CCCC(Nc2ccc3c(c2)OCO3)C1 (stereo not drawn) [Compound 7773]
Ability to form colonies in soft agar (H1299 cells): dramatically inhibited | Steady state levels of CD44, Kras, cMyc and SRF RNA (ES2 cells; ES2, 7773, 12 hours): reduced | Steady state level of CD44 RNA (ES2 cells; ES2, 7773, 12 hours, appeared to recover after 24 hours): strongly reduced | Steady state levels of control RNAs (not targets of Igf2bp1) (ES2 cells; ES2, 7773, 24 hours): not significantly affected | Activity of wild type luciferase [1]: did not affect
